Measured values as given in ChEMBL document CHEMBL1201862, “PubChem BioAssay data set” (2004).
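Five concentrations, 48 hours, 96-well plates. GI50 is the concentration that inhibits growth by half.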 Calls of active or inactive are those of the source. No stated cut-off is given here; in the data, active = GI50 up to about 1.1 µM and inactive = higher.

Legend:
Test in all cases: NCI tumour cell line growth inhibition, 48 h
[1] = tested on: CAKI-1
[2] = tested on: UACC-62
[3] = tested on: SR
[4] = tested on: HT-29
[5] = tested on: SF-539
[6] = tested on: SK-MEL-5
[7] = tested on: SK-MEL-2
[8] = tested on: UO-31
[9] = tested on: SW-620
[10] = tested on: OVCAR-8
[11] = tested on: SNB-75
[12] = tested on: U-251
[13] = tested on: SF-268
[14] = tested on: 786-0
[15] = tested on: LOX IMVI
[16] = tested on: CCRF-CEM

Measured: GI50

COc1cc(/C=C2/C(=O)N(C(=O)OCc3ccccc3)C(Cc3cc(OC)c(OC)c(C)c3OC)C(=O)N2Cc2ccccc2)c(OC)c(C)c1OC (stereo not drawn)
inactive: [1] > 100 µM | [2] > 100 µM | [3] 41.1 µM | [4] > 100 µM | [5] > 100 µM | [6] 19.4 µM | [7] 87.3 µM | [8] > 100 µM | [9] > 100 µM | [10] > 100 µM | [11] > 100 µM | [12] 33.1 µM | [13] > 100 µM | [14] > 100 µM | [15] > 100 µM

O=C(NCc1ccncc1)C1COc2cc(-c3cc(=O)c4ccccc4o3)ccc2O1 (stereo not drawn)
inactive: [2] > 100 µM | [3] > 100 µM | [4] > 100 µM | [5] > 100 µM | [6] > 100 µM | [7] > 100 µM | [16] > 100 µM | [8] > 100 µM | [9] > 100 µM | [10] > 100 µM | [11] 38.1 µM | [12] > 100 µM | [14] > 100 µM | [15] > 100 µM

OCCCc1cnco1
inactive: [1] > 100 µM | [2] > 100 µM | [3] > 100 µM | [4] > 100 µM | [5] > 100 µM | [6] > 100 µM | [16] > 100 µM | [8] > 100 µM | [9] > 100 µM | [10] > 100 µM | [11] > 100 µM | [12] > 100 µM | [13] > 100 µM | [14] > 100 µM | [15] > 100 µM

COC1=CC(O)(CC(N)=O)c2ccccc2C1=O (stereo not drawn)
inactive: [1] > 100 µM | [2] > 100 µM | [3] > 100 µM | [4] > 100 µM | [6] > 100 µM | [7] > 100 µM | [16] > 100 µM | [8] > 100 µM | [9] > 100 µM | [10] > 100 µM | [11] > 100 µM | [12] > 100 µM | [13] > 100 µM | [14] > 100 µM | [15] > 100 µM

COc1cc2c(cc1OC)C(C#N)(Cc1ccccc1)N(C(=O)c1ccccc1)C=C2 (stereo not drawn)
inactive: [2] 31.3 µM | [3] 45.7 µM | [4] 60.8 µM | [5] > 100 µM | [6] 26 µM | [7] > 100 µM | [16] 35.6 µM | [8] 36 µM | [9] 81.5 µM | [10] 65.8 µM | [11] 70.6 µM | [12] > 100 µM | [13] > 100 µM | [14] > 100 µM | [15] > 100 µM

CCSc1nc(-c2ccc(OC)cc2)c(C#N)c(=O)n1C1OCC(OC(C)=O)C(OC(C)=O)C1OC(C)=O (stereo not drawn)
inactive: [1] > 100 µM | [2] > 100 µM | [3] > 100 µM | [4] > 100 µM | [5] > 100 µM | [6] 93.3 µM | [7] > 100 µM | [8] > 100 µM | [9] > 100 µM | [11] 65.6 µM | [12] > 100 µM | [13] > 100 µM | [14] > 100 µM

CCN(CC)C(=O)c1c(Cl)cc(N(CC)CC)oc1=O
inactive: [2] > 100 µM | [3] > 100 µM | [4] > 100 µM | [5] > 100 µM | [7] > 100 µM | [16] > 100 µM | [8] > 100 µM | [9] > 100 µM | [10] > 100 µM | [11] > 100 µM | [12] > 100 µM | [13] > 100 µM | [14] > 100 µM | [15] > 100 µM

O=C1O/C(=C(/c2ccc(Cl)cc2)c2nc3ccccc3[nH]2)C(O)=C1c1ccc(Cl)cc1
inactive: [1] 2.23 µM | [2] 2.21 µM | [3] 1.92 µM | [4] 2.7 µM | [5] 2.65 µM | [16] 1.89 µM | [8] 2.9 µM | [9] 3.48 µM | [10] 2.82 µM | [11] 2.69 µM | [12] 2.56 µM | [13] 2.46 µM | [14] 3.36 µM | [15] 2.44 µM

O=C(Cc1nc2ccccc2o1)C(=O)Nc1ccc(Cl)cc1Cl
inactive: [1] > 100 µM | [2] > 100 µM | [3] 13.1 µM | [4] > 100 µM | [5] > 100 µM | [7] > 100 µM | [8] > 100 µM | [9] > 100 µM | [10] > 100 µM | [11] 49.2 µM | [12] > 100 µM | [13] > 100 µM | [14] > 100 µM

CC(=O)OCC1OC(n2c(-c3ccc(N)cc3)cc(-c3ccco3)c(C#N)c2=O)C(OC(C)=O)C(OC(C)=O)C1OC(C)=O (stereo not drawn)
inactive: [1] > 50 µM | [2] 37.2 µM | [3] > 50 µM | [4] > 50 µM | [5] 7.62 µM | [6] 8.93 µM | [7] 22.4 µM | [8] > 50 µM | [9] > 50 µM | [10] 5.87 µM | [11] > 50 µM | [12] 7.06 µM | [13] 11.5 µM | [14] 14.2 µM | [15] 8.04 µM

ClC1=C(Cl)C(Cl)(Cl)c2c3c(c4c(c21)C(Cl)(Cl)C(Cl)=C4Cl)C(Cl)(Cl)C(Cl)=C3Cl
inactive: [3] > 100 µM | [4] > 100 µM | [5] > 100 µM | [6] > 100 µM | [16] > 100 µM | [9] > 100 µM | [10] > 100 µM | [12] > 100 µM | [13] > 100 µM | [14] > 100 µM | [15] > 100 µM

O=C(c1ccccc1)[C@@H]1C[C@H](Sc2ccccc2)c2cc(Cl)ccc2N1
inactive: [1] 42.2 µM | [2] 19.5 µM | [3] 14 µM | [4] 22.2 µM | [5] 16.9 µM | [6] 11.7 µM | [7] 31.8 µM | [8] 12.7 µM | [9] 22.5 µM | [10] 23.4 µM | [11] 18.8 µM | [12] 21.2 µM | [13] 19 µM | [14] 18.2 µM | [15] 23.5 µM

C/C(C=O)=C1\C(O)C[C@]1(C)C1CC(C)(C)CC1O (stereo partly drawn)
inactive: [1] > 100 µM | [3] 47 µM | [4] > 100 µM | [5] 49.1 µM | [6] > 100 µM | [7] > 100 µM | [16] 26.7 µM | [8] > 100 µM | [9] > 100 µM | [10] > 100 µM | [12] > 100 µM | [13] > 100 µM | [14] > 100 µM | [15] > 100 µM

CN(C)c1ccc(N=O)c(O)c1.CN(C)c1ccc(N=O)c(O)c1.[SiH4]
inactive: [1] 8.55 µM | [2] 8.49 µM | [3] 11 µM | [4] 6.67 µM | [5] 14.2 µM | [6] 11.1 µM | [16] 4.35 µM | [8] 16.3 µM | [9] 10.2 µM | [10] 12.9 µM | [11] 12.7 µM | [12] 8.09 µM | [13] 6.98 µM | [14] 20.8 µM | [15] 5.92 µM
